Test results reported in patent publication US6579851B2, “Effects of glucagon-like peptide-1 (7-36) on antro-pyloro-duodenal motility” (Amylin Pharmaceuticals, Inc., priority 2000, dated 2003).
Read-outs that look alike come from different tables or passages of the source.

What was measured:
[1] = for GLP-1 (plasma immunoreactivity, AUC over basal): 60 min period, mean ± SEM
Protocol: Plasma glucose concentrations were measured using a glucose analyzer by the glucose oxidase method (YSI 1500 G; Schlag, Bergisch-Gladbach, Germany), with a coefficient of variation of <2%. Plasma insulin was measured by the Abbott Imx Microparticle Enzyme Immunoassay, with an average intraassay coefficient of variation of 5%. Plasma immunoreactivities of C-peptide, glucagon, and pancreatic polypeptide (PP) were analyzed by commercially available radioimmunoassay kits (Biermann, Bad Nauheim, Germany and Euradiagnostica, The Netherlands [PP]). […] The detection limit of the assay was 0.25 pmol/l. […] Intra- and inter-assay coefficients of variation were 3.4 and 10.4%, respectively. All values were expressed as mean±SEM. Plasma and motility parameters were separately analyzed for each 60 min period. Pyloric tone was calculated as change from basal, the latter being determined as mean pyloric tone during the total basal period before starting the experiments. Differences of plasma hormones and glucose compared to the basal state were calculated as integrated values over basal (area under the response curve; AUC). Basal levels of plasma parameters were determined as the mean of the two basal values just before the start of each experiment. All samples were first tested for normality by the Kolmogoroff-Smirnoff test. Differences between experimental sets for each parameter were analysed by two-way repeated measures analysis of variance employing intravenous infusion and duodenal perfusion as factors. When this analysis indicated differences, a Student-Newman-Keuls multicomparison test was performed. Differences were considered significant at P<0.05.
(§1) Eleven healthy male volunteers, 23 to 28 years old and within 10% of ideal body weight, participated in the studies. None of them were taking medication, or suffering from gastrointestinal symptoms or systemic disease.
(§2) All studies were performed after an overnight fast. Two experiments were performed, separated by at least 1 week on subjects lying in a semirecumbent position. An indwelling catheter was inserted into an antecubital vein for intravenous infusions. A second catheter was inserted into a dorsal vein of the contralateral hand in a retrograde fashion for sampling of arterialized blood (Schirra et al. Proc Assoc Am Physicians 109, 84-97 (1997)).
(§3) On the interdigestive study day, 0.154 M saline was continuously perfused into the region of the lower duodenal flexure at a rate of 2.5 ml/min. […] On the postprandial study day, the same intravenous infusions were administered with an intraduodenal lipid perfusion at 2.5 kcal/min (2.5 ml/min, Lipofundin MCT 10%, Braun Co., Melsungen, Germany). This lipid preparation consisted of 50% medium-chain triglycerides (MCT) and 50% long-chain triglycerides (LCT, soya bean oil).
Throughout the experiment, blood samples were taken immediately before the start of intravenous infusion, as well as in 10-min intervals thereafter. Blood was collected in ice-chilled EDTA tubes containing 1000 aprotinin (kallikrein inhibitory units/ml blood) and was centrifuged immediately. The plasma was stored at −20° C. until assayed.

[2] = Plasma glucose during intravenous GLP-1 infusion (glucose oxidase method); assay type: in vivo, human; settings: for Nadir of plasma glucose: at 20 min
Protocol: (§4) All values were expressed as mean±SEM. […] Differences were considered significant at P<0.05.
(§5) All studies were performed after an overnight fast.
(§6) The plasma was stored at −20° C. until assayed.

[3] = Plasma glucagon immunoreactivity during intravenous GLP-1 infusion; assay type: in vivo, human
Protocol: as §4, §5, §6

[4] = Plasma pancreatic polypeptide immunoreactivity during intravenous GLP-1 infusion; assay type: in vivo, human
Protocol: as §4, §5, §6

pyloric motility = assay: Pyloric motility (IPPW, pyloric tone) and duodenal phase III by perfusion manometry; assay type: in vivo, human; settings: for Volunteers with duodenal phase III: within 10 min after GLP-1 infusion; for Pyloric Motility IPPW: actual values; for Pyloric tone: values over basal
Protocol: Inhibition of antro-duodenal activity is assessed directly by motility recordings using methods that are well known to the skilled artisan. Contractile events are analyzed with a computer and validated software (Katschinski et al., Gastroenterol. 103, 383-91 (1992)) and only peaks with amplitudes of at least 10 mmHg and a duration of at least 2 s are considered true contractions. Duodenal phase III is defined as the occurrence of regular contractions at a frequency of ≧10/min for at least 2 min in the duodenum propagated aborally.
As used herein, “inhibition” of antro-pyloro-duodenal motility is defined as a reduction in the motility index. Other methods for measuring motility can be used. One of skill in the art will appreciate that a significant inhibition, including total inhibition, of motility will be useful.
The present invention also relates to therapeutic methods associated with stimulating pyloric motility. Two parameters used to describe pyloric motility are: 1) Isolated pyloric pressure waves (IPPW), defined as contractions registered by the sleeve with or without simultaneous contractions in maximally one sleeve-side-hole in the absence of associated (±3 sec) waves of any amplitude in the adjacent antral and duodenal side-holes and 2) pyloric tone. Pyloric tone is measured by deducting the basal pressure recorded by the antral side hole at the proximal end of the sleeve, from the basal pressure recorded by the sleeve. Basal pressures is defined as the mean pressure after excluding contractions; it is obtained each minute and used to calculate mean pyloric tone.
as §4, §5
Perfusion manometry was recorded using a nine-lumen duodenal sleeve/side-hole catheter (Dentsleeve, South Australia, Australia). The manometric assembly incorporated a 4.5 cm long sleeve sensor, two antral side-holes (2 cm apart), and three duodenal side-holes (2 cm apart), beginning at the proximal and distal end of the sleeve, respectively. Two more side-holes were positioned across the sleeve spaced 1.5 cm apart. An additional lumen located 12 cm distal to the sleeve sensor was used for duodenal perfusion.
The correct position of the duodenal probe with the sleeve array straddling the pylorus was fluoroscopically checked before start of each experiment, and monitored throughout each study by measuring the transmucosal potential difference at the distal antral and the proximal duodenal port, as previously described (Schirra et al. J Clin Invest 97, 92-103 (1996)). A difference of at least −15 mV indicated correct transpyloric position of the tube.
The motility channels were perfused at a rate of 0.3 ml/min using a low-compliance pneumohydraulic pump (Arndorfer Medical Specialists, Greendale, Wis.). Pressures were measured by external transducers. Data were simultaneously recorded on the screen of a multichannel chart system (PC Polygraph, Synectics Medical, Stockholm, Sweden) and stored in the memory of a personal computer. Data were sampled and digitized at 8 Hz followed by digital smoothing by a factor of 2.

[5] = during the experiments of the application
Protocol: as §1, §2, §3

[6] = intraduodenal lipid, high dose 1.2 pmol·kg−1·min−1 iv.
[7] = intraduodenal lipid, low dose 0.4 pmol·kg−1·min−1 iv.
[8] = intraduodenal saline, high dose 1.2 pmol·kg−1·min−1 iv.
[9] = intraduodenal saline, low dose 0.4 pmol·kg−1·min−1 iv.
[10] = low dose GLP-1, interdigestive state

## CC[C@H](C)[C@H](NC(=O)[C@H](Cc1ccccc1)NC(=O)[C@H](CCC(=O)O)NC(=O)[C@H](CCCCN)NC(=O)[C@H](C)NC(=O)[C@H](C)NC(=O)[C@H](CCC(N)=O)NC(=O)CNC(=O)[C@H](CCC(=O)O)NC(=O)[C@H](CC(C)C)NC(=O)[C@H](Cc1ccc(O)cc1)NC(=O)[C@H](CO)NC(=O)[C@H](CO)NC(=O)[C@@H](NC(=O)[C@H](CC(=O)O)NC(=O)[C@H](CO)NC(=O)[C@@H](NC(=O)[C@H](Cc1ccccc1)NC(=O)[C@@H](NC(=O)CNC(=O)[C@H](CCC(=O)O)NC(=O)[C@H](C)NC(=O)[C@@H](N)Cc1c[nH]cn1)[C@@H](C)O)[C@@H](C)O)C(C)C)C(=O)N[C@@H](C)C(=O)N[C@@H](Cc1c[nH]c2ccccc12)C(=O)N[C@@H](CC(C)C)C(=O)N[C@H](C(=O)N[C@@H](CCCCN)C(=O)NCC(=O)N[C@@H](CCCNC(=N)N)C(N)=O)C(C)C [GLP-1, glucagon-like peptide-1(7-36)amide]
[1]; intraduodenal lipid 2.5 kcal/min, GLP-1 iv. high dose 1.2 pmol·kg−1·min−1
  GLP-1 (plasma immunoreactivity, AUC over basal): 75.2 ± 3.9*‡∥ pmol/l · 60 min
[1]; intraduodenal lipid 2.5 kcal/min, GLP-1 iv. low dose 0.4 pmol·kg−1·min−1
  GLP-1 (plasma immunoreactivity, AUC over basal): 33.8 ± 2.9*∥ pmol/l · 60 min
[1]; intraduodenal saline, GLP-1 iv. high dose 1.2 pmol·kg−1·min−1
  GLP-1 (plasma immunoreactivity, AUC over basal): 67.4 ± 4.0 pmol/l · 60 min
[1]; intraduodenal saline, GLP-1 iv. low dose 0.4 pmol·kg−1·min−1
  GLP-1 (plasma immunoreactivity, AUC over basal): 25.2 ± 2.6 pmol/l · 60 min
[1]; iv. infusion, duodenal saline and lipid
  Time to constant plasma levels after start of infusion: ≤ 20 min
[2]; high dose GLP-1
  Nadir of plasma glucose: 3.64 ± 0.14 mmol/L
[2]; [6]
  Plasma glucose (AUC over basal): −4.5 ± 0.7*∥ mmol/l · 60 min
[2]; [7]
  Plasma glucose (AUC over basal): −4.7 ± 0.5*∥ mmol/l · 60 min
[2]; [8]
  Plasma glucose (AUC over basal): −2.5 ± 0.4 mmol/l · 60 min
[2]; [9]
  Plasma glucose (AUC over basal): −2.3 ± 0.3 mmol/l · 60 min
[2]; low dose GLP-1
  Nadir of plasma glucose: 3.58 ± 0.12 mmol/L
[3]; [6]
  Glucagon (AUC over basal): 48.0 ± 33.8*‡∥ pg/ml · 60 min
[3]; [7]
  Glucagon (AUC over basal): 99.7 ± 25.1*∥ pg/ml · 60 min
[3]; [8]
  Glucagon (AUC over basal): −68.6 ± 28.9 pg/ml · 60 min
[3]; [9]
  Glucagon (AUC over basal): −59.0 ± 37.1 pg/ml · 60 min
[4]; [6]
  Pancreatic polypeptide (AUC over basal): −104.2 ± 71.1 pg/ml · 60 min
[4]; [7]
  Pancreatic polypeptide (AUC over basal): 7.7 ± 55.4*∥ pg/ml · 60 min
[4]; [8]
  Pancreatic polypeptide (AUC over basal): −128.9 ± 33.2 pg/ml · 60 min
[4]; [9]
  Pancreatic polypeptide (AUC over basal): −90.5 ± 32.7 pg/ml · 60 min
Pyloric motility; GLP-1 infusion in conjunction with lipid perfusion
  Subjects with duodenal phases III: two out of 11
Pyloric motility; high dose GLP-1, interdigestive state
  Volunteers with duodenal phase III: five
Pyloric motility; [6]
  Pyloric Motility IPPW: 15.5 ± 2.1 number/10 min
  Pyloric tone: 8.6 ± 1.0 mmHg
Pyloric motility; [7]
  Pyloric Motility IPPW: 15.7 ± 2.5 number/10 min
  Pyloric tone: 7.4 ± 1.0 mmHg
Pyloric motility; [8]
  Pyloric Motility IPPW: 8.6 ± 1.3 number/10 min
  Pyloric tone: 7.3 ± 1.5 mmHg
Pyloric motility; [9]
  Pyloric Motility IPPW: 10.1 ± 1.9 number/10 min
  Pyloric tone: 5.3 ± 0.9 mmHg
Pyloric motility; [10]
  Time until increase of pyloric tone was fully established: ≤ 20 min
  Time until increase of pyloric tone was significant: ≤ 10 min
  Volunteers with duodenal phase III: seven out of 11
[5]
  Hypoglycemia and other side effects: did not cause hypoglycemia
